In patent publication US9896440B2, “Aryl substituted heterocyclyl sulfones” (GRÜNENTHAL GMBH, priority 2014, dated 2018):

target: T1, Human CaV2.2 channels (Homo sapiens, UniProt Q00975); assay: Fluorescence assay for CaV2.2 channels using potassium depolarization to induce channel opening (FLIPR, Fluo 4); type: cell-based; conditions: 3 μM test compound, 30 mM KCl assay buffer (inactivated channel state), HEK293 cells
T1 construct: expressed in transfected cells; Kir2.3 also stably co-expressed
Text: In the process, the Ca^2+ influx is quantified in the FLIPR assay with the aid of a Ca^2+-sensitive dye (type Fluo-4, Molecular Probes Europe BV, Leiden, the Netherlands) in a fluorescent imaging plate reader (FLIPR 3, Molecular Devices, Sunnyvale, USA), as described hereinafter.
Human CaV2.2 channels were stably expressed in HEK293 cells together with alpha2-delta and beta subunits of voltage gated calcium channels. In addition, an inwardly rectifying potassium channel (Kir2.3) was stably expressed in these cells to augment control of the cell membrane potential by the concentration of extracellular potassium ions. Raise of the extracellular potassium concentration leads to depolarization of the membrane potential and thus regulates the voltage dependent state of CaV2.2 channels. For preparation, cells were seeded in black poly-D-lysine coated 96-well plates (Becton Dickinson, Biocoat 4640) in 100 μL medium [500 mL DMEM/F-12 plus Glutamax (Invitrogen 31331-093) plus 5.5 mL MEM NEAA 100× (Invitrogen 11140-035) plus 50 mL FBS decomplemented (Invitrogen 10270-106) plus 200 μg/mL Geneticin (Invitrogen 10131-027) plus 50 μg/mL Hygromycin B (Invitrogen 10687-010) plus 2 μg/mL Blasticidin (anti-bl5b Invivo-Gen) plus 0.2 μg/mL Puromycin (A 11138-03)] at a cell density of 30.000 cells per well. Plates were incubated at 37° C. (5% CO2) for 20 to 23 h. On the day of experiment medium was discarded and cells were loaded with Fluo 4 by addition of 100 μL of basic assay buffer (10 mM HEPES, 1 mM KCl, 149 mM NaCl, 0.8 mM CaCl2, 1.7 mM MgCl2, 10 mM Glucose, 0.1% BSA. pH 7.4) containing 2 μM Fluo 4 (Molecular Probes; F-14201), 0.01% pluronic acid (Molecular Probes; P-6866) and 2.5 mM probenecid (Molecular Probes; P36400). Cells were incubated in the dark at 25° C. for 60 min. Then dye containing buffer was discarded and 100 μL basic (1 mM KCl) or alternative (30 mM KCl) assay buffer was added. The alternative assay buffer contained altered concentrations of KCl (30 mM) and NaCl (120 mM) and was used in order to promote the inactivated channel state. After that 25 μL of basic or alternative assay buffer with or without test compound were added and cells were incubated again in the dark at 25° C. for 15 min. Fluorescence intensity was measured on a FLIPR 3 instrument (Molecular Devices Corp., Sunnyvale, Calif.) with excitation at 480 nm and emission at 535 nm. After continuously reading fluorescence for 30 sec, 50 μL of basic assay buffer containing 210 mM KCl (NaCl omitted) were added for depolarization. Peak fluorescent signal intensity was determined and the amplitude of the peak signal, normalized to base line, was used to measure channel inhibition by test compounds.

T1 sequence (Q00975 whole entry): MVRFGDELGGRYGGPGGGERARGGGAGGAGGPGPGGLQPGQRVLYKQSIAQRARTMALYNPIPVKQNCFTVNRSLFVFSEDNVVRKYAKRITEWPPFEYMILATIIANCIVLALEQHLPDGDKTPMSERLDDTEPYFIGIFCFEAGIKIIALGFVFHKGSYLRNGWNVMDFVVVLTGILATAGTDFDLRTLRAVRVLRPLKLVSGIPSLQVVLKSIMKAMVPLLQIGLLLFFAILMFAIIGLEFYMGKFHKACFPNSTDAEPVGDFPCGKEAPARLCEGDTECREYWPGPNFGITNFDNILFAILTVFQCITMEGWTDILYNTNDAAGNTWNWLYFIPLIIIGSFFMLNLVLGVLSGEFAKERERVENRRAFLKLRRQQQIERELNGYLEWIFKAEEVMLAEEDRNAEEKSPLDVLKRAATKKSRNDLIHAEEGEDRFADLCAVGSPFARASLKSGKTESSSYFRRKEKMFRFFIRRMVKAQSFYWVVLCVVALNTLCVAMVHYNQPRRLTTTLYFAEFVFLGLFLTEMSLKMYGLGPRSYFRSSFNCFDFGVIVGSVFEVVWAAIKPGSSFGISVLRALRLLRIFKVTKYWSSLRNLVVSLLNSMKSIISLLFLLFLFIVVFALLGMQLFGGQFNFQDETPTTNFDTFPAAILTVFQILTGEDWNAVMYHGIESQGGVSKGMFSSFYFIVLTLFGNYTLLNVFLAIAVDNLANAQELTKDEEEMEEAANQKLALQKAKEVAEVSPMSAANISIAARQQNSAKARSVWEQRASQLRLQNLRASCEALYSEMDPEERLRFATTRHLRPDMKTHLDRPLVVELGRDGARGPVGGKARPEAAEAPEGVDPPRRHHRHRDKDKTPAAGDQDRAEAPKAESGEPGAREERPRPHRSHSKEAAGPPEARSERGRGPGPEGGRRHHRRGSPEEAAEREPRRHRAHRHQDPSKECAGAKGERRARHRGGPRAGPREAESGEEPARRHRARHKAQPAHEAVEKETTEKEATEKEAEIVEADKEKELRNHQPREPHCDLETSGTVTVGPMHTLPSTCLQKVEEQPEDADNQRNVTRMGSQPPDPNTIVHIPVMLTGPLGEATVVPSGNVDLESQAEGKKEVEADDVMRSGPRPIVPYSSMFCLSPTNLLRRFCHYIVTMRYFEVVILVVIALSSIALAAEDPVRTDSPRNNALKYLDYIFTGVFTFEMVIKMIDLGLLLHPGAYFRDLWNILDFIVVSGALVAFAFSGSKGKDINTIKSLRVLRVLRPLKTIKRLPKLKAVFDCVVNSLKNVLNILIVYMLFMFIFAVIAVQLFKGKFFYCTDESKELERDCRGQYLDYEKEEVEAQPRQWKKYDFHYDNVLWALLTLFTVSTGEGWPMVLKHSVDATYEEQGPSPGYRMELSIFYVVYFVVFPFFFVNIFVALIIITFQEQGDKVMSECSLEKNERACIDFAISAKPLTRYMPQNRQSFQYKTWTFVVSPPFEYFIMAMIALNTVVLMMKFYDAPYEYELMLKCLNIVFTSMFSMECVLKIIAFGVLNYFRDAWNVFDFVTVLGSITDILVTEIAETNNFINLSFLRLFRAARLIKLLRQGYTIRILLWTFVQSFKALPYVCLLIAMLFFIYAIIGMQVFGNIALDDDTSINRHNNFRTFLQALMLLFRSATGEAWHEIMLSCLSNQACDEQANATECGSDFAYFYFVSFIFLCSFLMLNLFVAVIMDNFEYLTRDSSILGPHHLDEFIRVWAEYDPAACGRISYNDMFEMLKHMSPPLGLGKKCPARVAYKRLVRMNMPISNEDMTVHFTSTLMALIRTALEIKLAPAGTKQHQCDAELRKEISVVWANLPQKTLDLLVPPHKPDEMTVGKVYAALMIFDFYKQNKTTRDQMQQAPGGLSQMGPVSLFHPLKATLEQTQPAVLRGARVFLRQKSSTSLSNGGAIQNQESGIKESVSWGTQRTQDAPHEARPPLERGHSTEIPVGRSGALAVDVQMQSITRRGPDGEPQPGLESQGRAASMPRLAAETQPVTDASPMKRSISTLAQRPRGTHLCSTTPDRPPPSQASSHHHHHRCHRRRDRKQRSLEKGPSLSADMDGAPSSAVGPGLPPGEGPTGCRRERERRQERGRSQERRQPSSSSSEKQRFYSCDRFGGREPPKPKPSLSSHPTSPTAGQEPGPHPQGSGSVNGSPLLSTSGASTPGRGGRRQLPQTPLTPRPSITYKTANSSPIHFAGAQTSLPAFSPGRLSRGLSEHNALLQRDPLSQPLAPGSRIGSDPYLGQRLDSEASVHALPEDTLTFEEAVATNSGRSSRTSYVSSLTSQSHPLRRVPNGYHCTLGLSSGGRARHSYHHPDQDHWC

SMILES	Activity Category: %-Inhib (CaV2.2) @3 μM @30 mM KCl
CC1(S(=O)(=O)c2cccc(C(F)(F)F)c2)CCOC(COc2ccc(S(C)(=O)=O)cc2F)C1 (single isomer, unassigned) [SC-149, 2-[(2-Fluoro-4-methylsulfonyl-phenoxy)-methyl]-4-methyl-4-[[3-(trifluoromethyl)phenyl]sulfonyl]-tetrahydro-pyran]	A (%-Inhibition >95%)
CC1(S(=O)(=O)c2cccc(C(F)(F)F)c2)CCOC(COc2ccc(S(C)(=O)=O)c(F)c2)C1 (single isomer, unassigned) [SC-151, 2-[(3-Fluoro-4-methylsulfonyl-phenoxy)-methyl]-4-methyl-4-[[3-(trifluoromethyl)phenyl]sulfonyl]-tetrahydro-pyran]	A (%-Inhibition >95%)
CC1(S(=O)(=O)c2cccc(C(F)(F)F)c2)COC(c2ccc(Cl)cc2)C1 (stereo not drawn) [SC-101, 2-(4-Chlorophenyl)-4-methyl-4-[[3-(trifluoromethyl)phenyl]sulfonyl]-tetrahydro-furan]	A (%-Inhibition >95%)
CC1(S(=O)(=O)c2cccc(C(F)(F)F)c2)COC(c2ccc(Cl)cc2)C1 (stereo not drawn) [SC-102, 2-(4-Chlorophenyl)-4-methyl-4-[[3-(trifluoromethyl)phenyl]sulfonyl]-tetrahydro-furan]	B (%-Inhibition >75% up to ≦95%)
CC1(S(=O)(=O)c2cccc(C(F)(F)F)c2)COC(c2ccc(Cl)cc2)C1 (stereo not drawn) [SC-103, 2-(4-Chlorophenyl)-4-methyl-4-[[3-(trifluoromethyl)phenyl]sulfonyl]-tetrahydro-furan]	A (%-Inhibition >95%)
CC1(S(=O)(=O)c2cccc(C(F)(F)F)n2)CCOC(c2ccc(Cl)cc2)C1 (stereo not drawn) [SC-105, 2-[[2-(4-Chlorophenyl)-4-methyl-tetrahydro-pyran-4-yl]sulfonyl]-6-(trifluoromethyl)-pyridine]	A (%-Inhibition >95%)
CC1(S(=O)(=O)c2cccc(C(F)(F)F)n2)CCOC(c2ccc(Cl)cc2)C1 (stereo not drawn) [SC-106, 2-[[2-(4-Chlorophenyl)-4-methyl-tetrahydro-pyran-4-yl]sulfonyl]-6-(trifluoromethyl)-pyridine]	B (%-Inhibition >75% up to ≦95%)
CC1(S(=O)(=O)c2cccc(C(F)(F)F)n2)CCOC(c2ccc(Cl)cc2)C1 (stereo not drawn) [SC-107, 2-[[2-(4-Chlorophenyl)-4-methyl-tetrahydro-pyran-4-yl]sulfonyl]-6-(trifluoromethyl)-pyridine]	B (%-Inhibition >75% up to ≦95%)
CCc1ccc(C(F)(F)F)cc1S(=O)(=O)C1CCOC(c2ccc(Cl)cc2)C1 (stereo not drawn) [SC-110, 2-(4-Chlorophenyl)-4-[[2-ethyl-5-(trifluoromethyl)-phenyl]sulfonyl]-tetrahydro-pyran]	B (%-Inhibition >75% up to ≦95%)
CCc1ccc(C(F)(F)F)cc1S(=O)(=O)C1CCOC(c2ccc(Cl)cc2)C1 (stereo not drawn) [SC-111, 2-(4-Chlorophenyl)-4-[[2-ethyl-5-(trifluoromethyl)-phenyl]sulfonyl]-tetrahydro-pyran]	C (%-Inhibition >40% up to ≦75%)
CC1(S(=O)(=O)c2cccc(C(F)(F)F)c2)CCOC(c2ccc(S(C)(=O)=O)cc2)C1 (stereo not drawn) [SC-113, 4-Methyl-2-(4-methylsulfonyl-phenyl)-4-[[3-(trifluoromethyl)phenyl]sulfonyl]-tetrahydro-pyran]	B (%-Inhibition >75% up to ≦95%)
CC1(S(=O)(=O)c2cccc(C(F)(F)F)c2)CCOC(c2ccc(Cl)cc2S(C)(=O)=O)C1 (stereo not drawn) [SC-115, 2-(4-Chloro-2-methylsulfonyl-phenyl)-4-methyl-4-[[3-(trifluoromethyl)phenyl]sulfonyl]-tetrahydro-pyran]	A (%-Inhibition >95%)
CC1(c2ccc(Cl)cc2)CC(S(=O)(=O)c2cccc(C(F)(F)F)c2)CCO1 (stereo not drawn) [SC-141, 2-(4-Chlorophenyl)-2-methyl-4-[[3-(trifluoromethyl)phenyl]sulfonyl]-tetrahydro-pyran]	A (%-Inhibition >95%)
CC1(S(=O)(=O)c2cccc(C(F)(F)F)c2)CCOC(c2ccc(S(C)(=O)=O)c(F)c2)C1 (stereo not drawn) [SC-144, 2-(3-Fluoro-4-methylsulfonyl-phenyl)-4-methyl-4-[[3-(trifluoromethyl)phenyl]sulfonyl]-tetrahydro-pyran]	A (%-Inhibition >95%)
CC1(S(=O)(=O)c2cccc(C(F)(F)F)c2)CCOC(c2cc(F)ccc2S(C)(=O)=O)C1 (stereo not drawn) [SC-204, 2-(5-Fluoro-2-methylsulfonyl-phenyl)-4-methyl-4-[[3-(trifluoromethyl)phenyl]sulfonyl]-tetrahydro-pyran]	A (%-Inhibition >95%)

same assay, conditions: HEK293, 3 μM test compound, 30 mM KCl assay buffer (inactivated channel state), HEK293 cells; read-out: Activity Category: %-Inhib (CaV2.2) @3 μM @30 mM KCl

SMILES	inhibition at 3 µM
CC1(S(=O)(=O)c2cccc(C(F)(F)F)c2)CCOC(COc2ccc(S(C)(=O)=O)c(F)c2)C1 (single isomer, unassigned) [SC-150, 2-[(3-Fluoro-4-methylsulfonyl-phenoxy)-methyl]-4-methyl-4-[[3-(trifluoromethyl)phenyl]sulfonyl]-tetrahydro-pyran]	75 to 95%
CC1(S(=O)(=O)c2cccc(C(F)(F)F)c2)COC(c2ccc(Cl)cc2)C1 (stereo not drawn) [SC-100, 2-(4-Chlorophenyl)-4-methyl-4-[[3-(trifluoromethyl)phenyl]sulfonyl]-tetrahydro-furan]	75 to 95%
CC1(S(=O)(=O)c2cccc(C(F)(F)F)n2)CCOC(c2ccc(Cl)cc2)C1 (stereo not drawn) [SC-104, 2-[[2-(4-Chlorophenyl)-4-methyl-tetrahydro-pyran-4-yl]sulfonyl]-6-(trifluoromethyl)-pyridine]	75 to 95%
Cc1ccc(C(F)(F)F)cc1S(=O)(=O)C1CCOC(c2ccc(Cl)cc2)C1 (stereo not drawn) [SC-108, 2-(4-Chlorophenyl)-4-((2-methyl-5-(trifluoromethyl)phenyl)sulfonyl)tetrahydro-2H-pyran]	75 to 95%
CC1(S(=O)(=O)c2cccc(C(F)(F)F)c2)CCOC(c2ccc(S(C)(=O)=O)cc2)C1 (stereo not drawn) [SC-112, 4-Methyl-2-(4-methylsulfonyl-phenyl)-4-[[3-(trifluoromethyl)phenyl]sulfonyl]-tetrahydro-pyran]	> 95%
CC1(S(=O)(=O)c2cccc(C(F)(F)F)c2)CCOC(c2ccc(Cl)cc2S(C)(=O)=O)C1 (stereo not drawn) [SC-114, 2-(4-Chloro-2-methylsulfonyl-phenyl)-4-methyl-4-[[3-(trifluoromethyl)phenyl]sulfonyl]-tetrahydro-pyran]	75 to 95%
CC(C)c1ccc(C(F)(F)F)cc1S(=O)(=O)C1CCOC(c2ccc(Cl)cc2)C1 (stereo not drawn) [SC-118, 2-(4-Chlorophenyl)-4-[[2-isopropyl-5-(trifluoromethyl)-phenyl]sulfonyl]-tetrahydro-pyran]	40 to 75%
CC1(S(=O)(=O)c2cccc(C(F)(F)F)c2)CCOCC1c1ccc(Cl)cc1 (stereo not drawn) [SC-120, 3-(4-Chlorophenyl)-4-methyl-4-[[3-(trifluoromethyl)phenyl]sulfonyl]-tetrahydro-pyran]	75 to 95%
CC1(c2ccc(Cl)cc2)CC(S(=O)(=O)c2cccc(C(F)(F)F)c2)CCO1 (stereo not drawn) [SC-140, 2-(4-Chlorophenyl)-2-methyl-4-[[3-(trifluoromethyl)phenyl]sulfonyl]-tetrahydro-pyran]	75 to 95%
Cc1ccc(S(C)(=O)=O)cc1C1CC(C)(S(=O)(=O)c2cccc(C(F)(F)F)c2)CCO1 (stereo not drawn) [SC-200, 4-Methyl-2-(2-methyl-5-methylsulfonyl-phenyl)-4-[[3-(trifluoromethyl)phenyl]sulfonyl]-tetrahydro-pyran]	75 to 95%
CC1(S(=O)(=O)c2cccc(C(F)(F)F)c2)CCOC(c2cc(C(F)(F)F)cc(S(C)(=O)=O)c2)C1 (stereo not drawn) [SC-202, 4-Methyl-2-[3-methylsulfonyl-5-(trifluoromethyl)-phenyl]-4-[[3-(trifluoromethyl)phenyl]sulfonyl]-tetrahydro-pyran]	> 95%
CC1(S(=O)(=O)c2cccc(C(F)(F)F)c2)CCOC(c2cc(F)ccc2S(C)(=O)=O)C1 (stereo not drawn) [SC-205, 2-(5-Fluoro-2-methylsulfonyl-phenyl)-4-methyl-4-[[3-(trifluoromethyl)phenyl]sulfonyl]-tetrahydro-pyran]	75 to 95%
